The values below come from patent US12054486B2, “Pyridine derivatives and their use as sodium channel activators” (Xenon Pharmaceuticals Inc., priority 2021, dated 2024).

Where a name gives a salt, the structure may show the parent alone.

One series addresses NaV1.1 (Homo sapiens, UniProt P35498). The settings on record: NaV1.1-expressing HEK cells; cited from earlier work.
The target in a further series is NaV1.5 (Homo sapiens, UniProt Q14524). As to conditions: relative to NaV1.1 activation; cited from earlier work.
NaV1.5, sequence (Q14524 whole entry): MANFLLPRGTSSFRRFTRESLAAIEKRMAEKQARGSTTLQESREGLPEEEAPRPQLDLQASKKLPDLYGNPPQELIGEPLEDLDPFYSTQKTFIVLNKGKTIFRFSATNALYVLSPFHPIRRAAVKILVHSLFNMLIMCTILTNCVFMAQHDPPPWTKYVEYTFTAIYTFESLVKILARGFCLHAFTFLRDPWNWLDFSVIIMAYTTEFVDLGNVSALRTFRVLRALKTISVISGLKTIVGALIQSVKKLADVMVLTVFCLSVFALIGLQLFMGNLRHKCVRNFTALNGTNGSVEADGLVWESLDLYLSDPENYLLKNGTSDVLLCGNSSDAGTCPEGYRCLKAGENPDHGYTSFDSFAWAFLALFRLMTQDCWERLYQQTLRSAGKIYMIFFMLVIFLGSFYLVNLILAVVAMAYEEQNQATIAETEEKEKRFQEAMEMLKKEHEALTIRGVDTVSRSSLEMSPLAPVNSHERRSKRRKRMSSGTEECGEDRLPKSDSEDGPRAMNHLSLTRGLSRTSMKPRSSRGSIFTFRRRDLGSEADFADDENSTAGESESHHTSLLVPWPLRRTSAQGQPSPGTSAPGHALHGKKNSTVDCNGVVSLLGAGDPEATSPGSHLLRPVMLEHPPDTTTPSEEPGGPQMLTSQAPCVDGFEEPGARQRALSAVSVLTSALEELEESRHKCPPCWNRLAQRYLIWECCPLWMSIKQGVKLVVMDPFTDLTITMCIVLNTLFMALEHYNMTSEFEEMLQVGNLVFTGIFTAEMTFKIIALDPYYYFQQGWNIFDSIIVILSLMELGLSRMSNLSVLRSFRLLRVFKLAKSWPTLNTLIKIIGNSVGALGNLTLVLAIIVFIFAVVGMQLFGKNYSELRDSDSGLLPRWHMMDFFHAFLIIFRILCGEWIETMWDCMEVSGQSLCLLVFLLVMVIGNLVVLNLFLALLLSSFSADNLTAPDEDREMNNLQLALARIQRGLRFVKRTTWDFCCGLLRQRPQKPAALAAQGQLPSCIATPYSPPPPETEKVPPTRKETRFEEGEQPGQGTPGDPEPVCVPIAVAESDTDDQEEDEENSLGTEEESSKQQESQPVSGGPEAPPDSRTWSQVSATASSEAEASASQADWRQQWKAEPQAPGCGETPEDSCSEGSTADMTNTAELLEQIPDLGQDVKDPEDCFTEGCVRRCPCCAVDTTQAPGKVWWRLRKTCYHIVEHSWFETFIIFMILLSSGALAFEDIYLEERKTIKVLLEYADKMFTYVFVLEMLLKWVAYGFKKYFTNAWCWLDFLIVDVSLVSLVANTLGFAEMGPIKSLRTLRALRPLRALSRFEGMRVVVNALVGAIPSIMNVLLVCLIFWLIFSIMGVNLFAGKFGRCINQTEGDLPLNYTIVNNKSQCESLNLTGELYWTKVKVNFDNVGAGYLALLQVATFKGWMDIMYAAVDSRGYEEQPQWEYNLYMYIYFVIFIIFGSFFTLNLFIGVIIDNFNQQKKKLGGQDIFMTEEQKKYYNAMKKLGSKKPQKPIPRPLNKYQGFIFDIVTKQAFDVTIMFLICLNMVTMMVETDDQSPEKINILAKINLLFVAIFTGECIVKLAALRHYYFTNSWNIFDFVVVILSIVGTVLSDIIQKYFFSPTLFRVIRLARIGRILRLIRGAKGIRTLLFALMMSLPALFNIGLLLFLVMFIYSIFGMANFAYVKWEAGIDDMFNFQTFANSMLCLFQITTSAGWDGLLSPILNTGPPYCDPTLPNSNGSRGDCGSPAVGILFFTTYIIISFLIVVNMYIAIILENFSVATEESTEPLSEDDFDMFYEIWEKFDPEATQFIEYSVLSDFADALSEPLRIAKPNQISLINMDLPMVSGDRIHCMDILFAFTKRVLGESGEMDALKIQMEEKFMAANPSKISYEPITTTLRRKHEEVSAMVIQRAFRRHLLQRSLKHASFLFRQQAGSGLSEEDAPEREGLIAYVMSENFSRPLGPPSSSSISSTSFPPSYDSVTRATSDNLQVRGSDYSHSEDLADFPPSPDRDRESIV
The target in a further series is NaV1.2 (Homo sapiens, UniProt Q99250). As to conditions: relative to NaV1.1 activation; cited from earlier work.
NaV1.2, sequence (Q99250 whole entry, canonical isoform): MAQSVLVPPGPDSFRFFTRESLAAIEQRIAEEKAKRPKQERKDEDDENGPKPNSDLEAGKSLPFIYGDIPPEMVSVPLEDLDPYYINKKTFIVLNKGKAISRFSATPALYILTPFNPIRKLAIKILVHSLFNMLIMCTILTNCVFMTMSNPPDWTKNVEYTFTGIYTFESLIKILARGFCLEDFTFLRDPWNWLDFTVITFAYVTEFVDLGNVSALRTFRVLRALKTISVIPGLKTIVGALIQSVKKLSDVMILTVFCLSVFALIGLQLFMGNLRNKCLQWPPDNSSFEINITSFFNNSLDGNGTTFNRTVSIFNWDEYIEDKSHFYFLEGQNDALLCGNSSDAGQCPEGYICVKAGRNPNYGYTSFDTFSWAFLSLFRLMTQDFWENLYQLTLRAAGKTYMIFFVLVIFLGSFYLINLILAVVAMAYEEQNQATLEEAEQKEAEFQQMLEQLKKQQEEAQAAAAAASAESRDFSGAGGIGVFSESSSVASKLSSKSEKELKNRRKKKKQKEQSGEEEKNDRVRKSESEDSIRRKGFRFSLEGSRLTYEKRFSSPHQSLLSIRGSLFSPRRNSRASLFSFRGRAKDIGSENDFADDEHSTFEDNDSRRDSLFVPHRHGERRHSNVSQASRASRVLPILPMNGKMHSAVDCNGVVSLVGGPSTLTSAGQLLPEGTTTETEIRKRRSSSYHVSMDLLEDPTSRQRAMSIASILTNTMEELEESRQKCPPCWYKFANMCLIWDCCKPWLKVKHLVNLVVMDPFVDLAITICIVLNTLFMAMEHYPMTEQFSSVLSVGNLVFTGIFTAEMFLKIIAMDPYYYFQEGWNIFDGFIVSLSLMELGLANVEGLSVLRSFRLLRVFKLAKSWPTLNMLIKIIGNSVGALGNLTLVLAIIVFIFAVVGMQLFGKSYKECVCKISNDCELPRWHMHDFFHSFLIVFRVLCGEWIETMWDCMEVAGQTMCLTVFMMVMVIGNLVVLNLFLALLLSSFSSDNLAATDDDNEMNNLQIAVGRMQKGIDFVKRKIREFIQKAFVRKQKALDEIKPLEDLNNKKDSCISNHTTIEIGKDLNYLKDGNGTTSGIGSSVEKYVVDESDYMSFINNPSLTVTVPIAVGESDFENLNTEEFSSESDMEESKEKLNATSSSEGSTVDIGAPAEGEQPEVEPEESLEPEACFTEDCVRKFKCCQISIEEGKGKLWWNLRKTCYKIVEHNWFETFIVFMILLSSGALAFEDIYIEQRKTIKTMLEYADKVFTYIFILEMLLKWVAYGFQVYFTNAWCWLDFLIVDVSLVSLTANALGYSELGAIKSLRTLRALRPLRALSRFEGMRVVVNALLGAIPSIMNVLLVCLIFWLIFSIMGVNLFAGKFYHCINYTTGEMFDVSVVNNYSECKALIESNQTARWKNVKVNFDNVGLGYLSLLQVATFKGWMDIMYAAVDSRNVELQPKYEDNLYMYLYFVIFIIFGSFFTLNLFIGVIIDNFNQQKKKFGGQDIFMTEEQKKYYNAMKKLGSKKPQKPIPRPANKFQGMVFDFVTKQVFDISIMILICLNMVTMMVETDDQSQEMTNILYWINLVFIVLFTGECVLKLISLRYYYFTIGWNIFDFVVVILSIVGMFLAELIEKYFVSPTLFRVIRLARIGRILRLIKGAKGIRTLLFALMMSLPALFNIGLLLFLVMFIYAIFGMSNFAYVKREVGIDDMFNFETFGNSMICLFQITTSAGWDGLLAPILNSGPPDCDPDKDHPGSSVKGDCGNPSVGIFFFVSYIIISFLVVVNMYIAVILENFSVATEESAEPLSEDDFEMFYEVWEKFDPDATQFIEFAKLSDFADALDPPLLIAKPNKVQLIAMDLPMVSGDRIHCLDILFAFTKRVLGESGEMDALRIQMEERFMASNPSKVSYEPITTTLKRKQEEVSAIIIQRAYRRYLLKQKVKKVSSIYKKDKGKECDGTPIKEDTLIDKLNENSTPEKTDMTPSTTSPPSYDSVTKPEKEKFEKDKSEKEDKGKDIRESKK
Series [1] concerns the target sodium channel isoforms of interest stably expressed in Human Embryonic Kidney Cells (voltage-gated sodium channel, particularly NaV1.1) (Homo sapiens, UniProt P35498). Kind of series: automated planar patch clamp assay of sodium channel gating (area under the sodium current trace). It counts as cell-based. As to conditions: HEK cells, voltage step from −120 mV to 0 mV, increasing concentrations. The method, boiled down: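 Sodium channel isoforms stably expressed in HEK cells, recorded by automated planar patch clamp with depolarizing steps from −120 mV to 0 mV at increasing compound concentrations. Area under the current trace quantifies gating effect; peak current, inactivation time constant and steady-state inactivation also measured; potency from concentration responses.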
A general note: Patch clamp records ionic current or voltage across a cell membrane.

As usually defined, the EC50 is the concentration giving half of the maximal effect.

Turning to `CCCCNS(=O)(=O)c1ccc(OC)c(-c2nnc3c4ccccc4c(C)nn23)c1` [Lu AE98134], on NaV1.1, the “concentration from which the total area under the curve for the duration of the depolarizing pulse is increased” value is at least 1 µM. Further, the “selectivity against NaV1.5” value at NaV1.5 is “low selectivity”. Moreover, the “selectivity against NaV1.2” value on NaV1.2 is recorded as “moderate selectivity”.
For the compound `CC1(C)Cc2nc(-c3c(-c4ccccc4)ccnc3N3CCC(F)(F)C3)[nH]c2CO1` [Example 52, 2-(2-(3,3-difluoropyrrolidin-1-yl)-4-phenylpyridin-3-yl)-6,6-dimethyl-3,4,6,7-tetrahydropyrano[3,4-d]imidazole], in series [1], the half-maximal effective concentration (EC50) was under 1 µM and the “Empirical Emax” value is “+++ (+++ indicates a value from 5.0 up to 7.5 μM)”.
The like results for `c1ccc(-c2cnnc(N3CCCC3)c2-c2nc3ccccc3[nH]2)cc1` [Example 28, 2-(5-phenyl-3-(pyrrolidin-1-yl)pyridazin-4-yl)-1H-benzo[d]imidazole] were, in that order, 10 to 50 µM and “++ (++ indicates a value from 2.0 up to 5.0 μM)”.
Regarding `FC1(F)CCCN(c2nccc(-c3ccccc3)c2-c2nc3c([nH]2)COCC3)C1` [Example 49, 2-(2-(3,3-difluoropiperidin-1-yl)-4-phenylpyridin-3-yl)-3,4,6,7-tetrahydropyrano[3,4-d]imidazole], in series [1], the EC50 lay within 10 to 50 µM and the “Empirical Emax” value is “++ (++ indicates a value from 2.0 up to 5.0 μM)”.
Regarding `Fc1ccccc1-c1ccnc(N2CCCC2)c1-c1nc2ccncc2[nH]1` [Example 11, 2-(4-(2-fluorophenyl)-2-(pyrrolidin-1-yl)pyridin-3-yl)-3H-imidazo[4,5-c]pyridine Formic Acid Salt], in series [1], the EC50 was in the range of 1 to 10 µM and the “Empirical Emax” value is “++++ (++++ indicates a value greater than 7.5)”.
